Experimental data taken from ChEMBL document CHEMBL4043177 (Bioorg Med Chem, 2017).

Key:
[1] = species on record: Homo sapiens; test: Selectivity index, ratio of IC50 for human OX2R expressed in CHO cells to IC50 for human OX1R expressed in CHO cells; assay type: cell-based
[2] = biological target: T1, Orexin receptor type 2 (Homo sapiens, UniProt O43614); test: Antagonist activity at human OX2R expressed in CHO cells assessed as reduction in [Ala6,12]orexin-A-induced intracellular Ca2+ mobilization incubated for 30 mins by Fluo-4AM dye based fluorescence assay; assay type: functional, cell-based
T1 sequence (O43614 whole entry): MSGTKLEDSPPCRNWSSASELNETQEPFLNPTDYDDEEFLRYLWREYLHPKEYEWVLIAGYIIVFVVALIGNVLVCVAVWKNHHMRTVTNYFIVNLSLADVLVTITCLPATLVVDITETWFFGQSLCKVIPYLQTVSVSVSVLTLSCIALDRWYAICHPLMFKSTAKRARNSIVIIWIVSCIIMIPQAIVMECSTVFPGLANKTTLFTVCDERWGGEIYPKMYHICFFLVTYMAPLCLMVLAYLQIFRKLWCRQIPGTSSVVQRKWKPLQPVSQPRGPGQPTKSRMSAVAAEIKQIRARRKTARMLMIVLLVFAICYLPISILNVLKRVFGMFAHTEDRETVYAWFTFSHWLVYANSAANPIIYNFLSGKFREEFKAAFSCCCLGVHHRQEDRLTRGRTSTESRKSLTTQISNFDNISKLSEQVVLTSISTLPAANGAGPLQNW

[3] = biological target: T2, Orexin/Hypocretin receptor type 1 (Homo sapiens, UniProt O43613); test: Antagonist activity at human OX1R expressed in CHO cells assessed as reduction in [Ala6,12]orexin-A-induced intracellular Ca2+ mobilization incubated for 30 mins by Fluo-4AM dye based fluorescence assay; assay type: functional, cell-based
T2 sequence (O43613 whole entry): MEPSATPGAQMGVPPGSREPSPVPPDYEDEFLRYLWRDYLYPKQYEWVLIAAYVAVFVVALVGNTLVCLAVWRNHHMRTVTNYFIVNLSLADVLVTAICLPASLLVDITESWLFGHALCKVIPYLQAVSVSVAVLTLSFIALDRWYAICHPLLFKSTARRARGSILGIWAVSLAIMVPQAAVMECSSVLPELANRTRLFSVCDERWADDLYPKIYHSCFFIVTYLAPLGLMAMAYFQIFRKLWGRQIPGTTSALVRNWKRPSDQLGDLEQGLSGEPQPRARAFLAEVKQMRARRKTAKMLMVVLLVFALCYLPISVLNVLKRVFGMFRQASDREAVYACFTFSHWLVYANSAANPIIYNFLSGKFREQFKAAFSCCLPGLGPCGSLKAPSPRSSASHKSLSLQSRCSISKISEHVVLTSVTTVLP

[4] = species on record: Homo sapiens; test: Selectivity index, ratio of IC50 for OX2R expressed in CHO cells to IC50 for human OX1R expressed in CHO cells; assay type: cell-based

IC50 [2] [nM]	IC50 [3] [nM]	Structure (SMILES)	Ratio IC50 [1]	Ratio IC50 [4]
22.8	1.93	CCN(C(=O)c1cc(C)ccc1-n1nccn1)[C@@H](C)Cn1cc(-c2ccc(F)cn2)nn1	12	
40.5	1.82	CCN(C(=O)c1nc(C)ccc1-n1nccn1)[C@@H](C)Cc1noc(-c2ccc(F)cc2)n1	22	
11.6	1.25	CCN(C(=O)c1ccccc1-n1nccn1)[C@@H](C)Cc1noc(-c2ccc(F)cc2)n1	9.3	
	908	Cc1ccc(-n2nccn2)c(C(=O)NCCn2cc(-c3ccc(F)cn3)cn2)c1		
61	2.45	CCN(C(=O)c1ccccc1-n1nccn1)[C@@H](C)Cn1nnc(-c2ccc(F)cc2)n1	25	
23.6	1.26	CCN(C(=O)c1cc(F)ccc1-n1nccn1)[C@@H](C)Cc1noc(-c2ccc(F)cc2)n1	19	
254	3.58	CCN(C(=O)c1nc(C)ccc1-c1ncccn1)[C@@H](C)Cc1noc(-c2ccc(F)cc2)n1	71	
11.9		Cc1ccc(-n2nccn2)c(C(=O)N(C)CCn2ccc(-c3ccc(F)cn3)n2)c1	2.1	
250	86.6	CCN(C(=O)c1cc(C)ccc1-n1nccn1)[C@H](C)Cn1ccc(-c2ccc(F)cn2)n1	2.9	
11.3	1.26	CCN(C(=O)c1cc(C)ccc1-n1nccn1)[C@@H](C)Cc1noc(-c2ccc(F)cn2)n1	9	
471	9.45	CCN(C(=O)c1cc(F)ccc1-n1nccn1)[C@@H](C)Cn1nnc(-c2ccc(F)cn2)n1	50	
43.2	3.24	CCN(C(=O)c1cc(C)ccc1-c1ncccn1)[C@@H](C)Cc1noc(-c2ccc(F)cn2)n1	13	
5.68	1.9	Cc1ccc(-n2nccn2)c(C(=O)N(C)[C@@H](C)Cn2ccc(-c3ccc(F)cn3)n2)c1	3	
952	61.5	Cc1ccc(-n2nccn2)c(C(=O)N(C)[C@H](Cn2ccc(-c3ccc(F)cn3)n2)C(C)C)c1	16	
58.4	10.1	Cc1ccc(-n2nccn2)c(C(=O)N[C@@H](C)Cn2ccc(-c3ccc(F)cn3)n2)c1	5.8	
2.73	1.07	CCN(C(=O)c1cc(C)ccc1-n1nccn1)[C@@H](C)Cc1noc(-c2ccc(F)cc2)n1	2.6	
17.9	1.1	CCN(C(=O)c1cc(C)ccc1-n1nccn1)[C@@H](C)Cn1nnc(-c2ccc(F)cn2)n1	16	
21.2	4.39	Cc1ccc(-n2nccn2)c(C(=O)N(C)[C@@H](C)Cn2cc(-c3ccc(F)cn3)cn2)c1	4.8	

IC50 [2] [nM]	IC50 [3] [nM]	Structure (SMILES)	Ratio IC50 [1]	Ratio IC50 [4]
129	10.6	CCN(C(=O)c1cc(C)ccc1-c1ncccn1)[C@@H](C)Cn1nnc(-c2ccc(F)cn2)n1	12	
		Cc1nc2ccc(NC(=O)Nc3ccnc4cccnc34)cc2o1		50
29	4.39	CC[C@@H](Cn1ccc(-c2ccc(F)cn2)n1)N(C)C(=O)c1cc(C)ccc1-n1nccn1	6.6	
36	1.81	CCN(C(=O)c1cc(C)ccc1-c1ncccn1)[C@@H](C)Cn1nnc(-c2ccc(F)cc2)n1	20	
8.85		CCN(C(=O)c1cc(C)ccc1-c1ncccn1)[C@@H](C)Cc1noc(-c2ccc(F)cc2)n1	6.3	
80.1	1.58	CCN(C(=O)c1cc(F)ccc1-c1ncccn1)[C@@H](C)Cc1noc(-c2ccc(F)cc2)n1	51	
139	3.06	CCN(C(=O)c1cc(F)ccc1-n1nccn1)[C@@H](C)Cn1nnc(-c2ccc(F)cc2)n1	45	
887	14.7	CCN(C(=O)c1cc(F)ccc1-n1nccn1)[C@@H](C)Cc1noc(-c2ccc(F)cn2)n1	60	
1.61	1.62	CCN(C(=O)c1cc(C)ccc1-n1nccn1)[C@@H](C)Cn1ccc(-c2ccc(F)cn2)n1	1	
198	119	Cc1ccc(-n2nccn2)c(C(=O)NCCn2ccc(-c3ccc(F)cn3)n2)c1	1.7	
14.2	9.06	CCN(CCn1cc(-c2ccc(F)cn2)cn1)C(=O)c1cc(C)ccc1-n1nccn1	1.6	
840	245	Cc1ccc(-n2nccn2)c(C(=O)N[C@@H](C)Cn2cc(-c3ccc(F)cn3)cn2)c1	3.4	
2.57	0.82	CCN(C(=O)c1cc(C)ccc1-n1nccn1)[C@@H](C)Cn1nnc(-c2ccc(F)cc2)n1	3.1	
5.87	0.767	CCN(C(=O)c1cc(C)ccc1-n1nccn1)[C@@H](C)Cn1cc(-c2ccc(F)cn2)cn1	7.7	
119	1.84	CCN(C(=O)c1nc(C)ccc1-n1nccn1)[C@@H](C)Cn1nnc(-c2ccc(F)cc2)n1	65	
51.7	56.1	Cc1ccc(-n2nccn2)c(C(=O)N(C)CCn2cc(-c3ccc(F)cn3)cn2)c1	0.92	
2.81	3.22	CCN(CCn1ccc(-c2ccc(F)cn2)n1)C(=O)c1cc(C)ccc1-n1nccn1	0.87	
